Values quoted from earlier work, collected in patent publication US10292953B2 (priority 2013, dated 2019).
Read-outs that look alike come from different tables or passages of the source.

Key:
porcine cornea = conditions: solution, in vitro
corneal pain [1] = conditions: dogs, aqueous solution of 1%, topical ocular
corneal pain [2] = conditions: cats, aqueous solution of 1%, topical ocular
ulceration of the cornea = conditions: 1% topical solution, rabbits with ulceration of the cornea

Q: For `CC(C)Cc1ccc(C(C)C(=O)O)cc1.N=C(N)NCCC[C@H](N)C(=O)O` (centres unmarked), which “effect on integrity of the cornea” value (porcine cornea) is on record?
A: The value was “adversely affected the integrity of the cornea”.

Q: For `CC(C)Cc1ccc(C(C)C(=O)O)cc1.NCCCC[C@H](N)C(=O)O` (centres unmarked), which “effect on integrity of the cornea” value (porcine cornea) is on record?
A: The value was “adversely affected the integrity of the cornea”.

Q: For `CN1CC[C@]23c4c5ccc(O)c4O[C@H]2[C@@H](O)C=C[C@H]3[C@H]1C5` [morphine], which “analgesic effects in treatment of corneal pain” value (corneal pain [1]) is on record?
A: Its value is “did not demonstrate analgesic effects”.

Q: And the “analgesic effects in treatment of corneal pain” value (corneal pain [2])?
A: Its value is “did not demonstrate analgesic effects”.

Q: For `Oc1ccc2c3c1O[C@H]1[C@@H](O)CC[C@@]4(O)[C@@H](C2)N(CC2CCC2)CC[C@]314` [nalbuphine], which analgesic efficacy (ulceration of the cornea) is on record?
A: The analgesic efficacy was “Neither did the opioid semi-synthetic nalbuphine applied in the form of 1% topical solution demonstrate analgesic efficacy”.
